Series [1] relates to MTKG cells. Briefly: Clonogenic assay for anticancer drug sensitivity, transfected cells. In kind it is cell-based. The following applies: Homo sapiens, 240 h, 10 days, read-out: inhibition of cell proliferation. The method, then: (§1) First, MTKG cells and HCT/Mock cells as a control group were inoculated at a cell density of 10^3 cells/well in a 6-well plate containing RPMI 1640 medium, followed by addition of an anticancer drug (doxorubicin or paclitaxel) at different concentrations (0, 1, 5, 10, 50, 100, 500, and 1000 nM) and incubation for 10 days. Thereafter, the culture medium was eliminated, and the cells were washed three times with a phosphate buffer and stained with a dye (Diff Quick staining kit). Colony formation was confirmed and colony count was made.

For series [2], the system named is HCT/Mock cells. Briefly: Clonogenic assay for anticancer drug sensitivity, control cells. In kind it is cell-based, human. The settings on record: 10 days. The method, then: as §1
The subject of series [3] is MTKG cells. In words: Clonogenic assay, co-administration of ganciclovir and doxorubicin. It counts as cell-based, human. The settings on record: 10 days. The method, then:
In order to confirm effects of co-administration of an anti-viral drug ganciclovir and an anticancer drug (doxorubicin) on cancer cells, clonogenic assay was carried out. For this purpose, first, MTKG cells were inoculated and cultured in a 100 mm plate containing RPMI 1640 medium, and the cells were then washed three times with a fresh medium. The cells were desorbed from the plate using trypsin-EDTA, and 1×10^3 cells were counted and inoculated into a 6-well plate with addition of ganciclovir (0.1 μCi) and doxorubicin at two different concentrations (10 and 25 nM), followed by incubation. 10 days after incubation, the culture medium was eliminated, and the cells were washed three times with a phosphate buffer and stained with a dye (Diff Quick staining kit). Colony formation was confirmed and colony count was made.

In series [4] the test system is MTKG cells. Briefly: Intracellular accumulation of [3H]-paclitaxel. In kind it is cell-based, human. The following applies: 50 nM [3H]-paclitaxel, 2 hours at 37° C., MTKG cells compared to HCT-15 and HCT/Mock cells, FIG. 4A. The method, then:
A degree of intracellular drug accumulation by MDR1 shRNA was investigated. MTKG cells constructed in Section 1-3 of Example 1, and HCT-15 and HCT/Mock cells as a control group were cultured in 6-well plates containing RPMI 1640 medium for 48 hours, to which 50 nM of an isotope-labeled anticancer drug ([^3H]-paclitaxel, Moravek, USA) was then added, followed by incubation at 37° C. for 2 hours. Then, the plate was washed three times with a phosphate buffer, and a cell lysis buffer (50 mM Tris-HCl, 150 mM NaCl, and 1% SDS) was added thereto to lyse the cells. For each cell lysate sample, an isotope activity was measured using a beta-counter.

In series [5] the test system is HCT/Mock cells. Briefly: Cell proliferation assay (CellTiter 96 Aqueous One Solution) for ganciclovir sensitivity. It counts as cell-based, human. The following applies: ganciclovir 0.1, 1, 10 μM, 4 days, FIG. 5B. From the text: (§2) Whether increased intracellular accumulation capacity of ganciclovir confirmed in Section 5-1 leads to the enhanced drug sensitivity of MTKG cells to ganciclovir was examined by a cell proliferation assay using CellTiter 96 Aqueous One Solution cell proliferation assay kit (Promega, USA), First, MTKG cells and HCT/Mock cells as a control group were inoculated at a cell density of 10^2 cells/well in a 96-well plate containing RPMI 1640 medium, followed by addition of ganciclovir at different concentrations (0, 0.1, 1, and 10 μM) and incubation for 4 days. Thereafter, 20 μl of detection solution were added to each well. The cells were incubated for 90 min at 37° C. and then measured absorbance at 490 nm using miroplate reader (BioRad, USA). From the experimental results shown in FIG. 5B, it was confirmed that proliferation of HCT-15 and HCT/Mock cells as a control group was not affected by administration of ganciclovir, whereas proliferation of the MTKG cells was affected even at a ganciclovir concentration of 0.1 μM or higher, thus representing increased drug sensitivity of the cell.

Series [6] concerns MTKG cells. Described as above. In kind it is cell-based, human. The settings on record: ganciclovir concentration of 0.1 μM or higher, 4 days, FIG. 5B.
Description: as §2

The next series relates to HCT-15 cells. The series is described as above. In kind it is cell-based, human. The following applies: ganciclovir 0.1, 1, 10 μM, 4 days, FIG. 5B.
Description: as §2

Series [7] relates to MTKG cells. Briefly: Intracellular accumulation of [H3]-ganciclovir. The settings on record: 0.76 μCi/mL [H3]-ganciclovir, 45 min at 37° C., MTKG cells compared to HCT-15 and HCT/Mock cells, FIG. 5A. In kind it is cell-based, human. The method, then: A degree of intracellular ganciclovir accumulation by the TK-GFP gene was investigated as follows. MTKG cells constructed in Section 1-3 of Example 1, and HCT-15 and HCT/Mock cells as a control group were cultured in 6-well plates containing RPMI 1640 medium for 48 hours, to which 0.76 μCi/mL of an isotope-labeled ganciclovir ([H^3]-Ganciclovir, Moravek, USA) was then added, followed by incubation at 37° C. for 45 min. Then, the plate was washed three times with a phosphate buffer and a cell lysis buffer (50 mM Tris-HCl, 150 mM NaCl, and 1% SDS) was added thereto to lyse the cells. For each cell lysate sample, an isotope activity was measured using a beta-counter.

The next series has as its system MDR1 mRNA. In words: RT-PCR analysis of MDR1 mRNA expression in transfected cells. It counts as cell-based, human. The settings on record: MTKG cells vs HCT-15 and HCT/Mock, FIG. 2A. As to the method:
Expression of MDR1 shRNA in MTKG cells of Section 1-3 of Example 1 was examined by RT-PCR For this purpose, total RNA was isolated from HCT-15, HCT/Mock, and MTKG cells, using Trizol reagent (Invitrogen) according to the manufacturer's instructions. Then, cDNA was prepared using 2 μg of the isolated total RNA as a template, and Oligo(dT)15 primer (Bionics, Seoul, Korea) and reverse transcriptase (Promega). PCR amplification for MDR1 mRNA was carried out using the prepared cDNA as a template and a pair of primers (SEQ ID NOS: 12 and 13). PCR was carried out as follows: initial denaturation of template cDNA at 94° C. for 2 min, followed by 30 cycles of denaturation at 94° C. for 30 seconds, annealing at 60° C. for 30 seconds and extension at 72° C. for 1 min.

A further series has as its system P-glycoprotein. In words: Western blot analysis of P-glycoprotein expression in transfected cells. It counts as cell-based, human. The settings on record: MTKG cells vs control cell line, FIG. 2B. The method, then:
In order to investigate whether intracellular incorporation of MDR1 shRNA inhibits expression of P-glycoprotein which is an expression product of the MDR1 gene, Western blot analysis was carried out for proteins isolated from HCT-15, HCT/Mock, and MTKG cells, respectively. The procedure will be briefly described as follows. HCT-15, HCT/Mock, and MTKG cells were lysed in a cell lysis buffer (containing 50 mM Tris-HCl, 150 mM NaCl, 1% Triton X-100, 1 mM CaCl2, 1 mM MgC2 and protease inhibitor cocktail (Roche, USA), pH 7.4). 30 μg of each protein in the cell lysates was subjected to electrophoresis on polyacrylamide gel containing 7% SDS, and the developed protein gel was transferred to a nitrocellulose membrane. Thereafter, anti-P-glycoprotein antibodies (clone C219, Calbiochem, USA) were diluted in a TBS-T solution (50 mM Tris-HCl, pH 7.6, 150 mM NaCl, 0.1% Tween 20) and were allowed to react and bind with a nitrocellulose membrane for more than 16 hours under refrigeration conditions. After the reaction was complete, the membrane was washed three times with a TBS-T solution, followed by binding reaction with horseradish peroxidase (HRP)-conjugated anti-mouse IgG antibodies (Santa Cruz, USA) for 1 hour at room temperature. […]

Regarding `COc1cccc2c1C(=O)c1c(O)c3c(c(O)c1C2=O)C[C@@](O)(C(=O)CO)C[C@@H]3O[C@H]1C[C@H](N)[C@H](O)[C@H](C)O1` [doxorubicin], in the series with MTKG cells [1] (doxorubicin concentration of 50 nM, FIG. 4B), the inhibition at 0.05 µM is at least 90%. Also, the “inhibition of cell proliferation” value in the series with HCT/Mock cells [2] (doxorubicin concentration of 500 nM or higher, FIG. 4B) is given as at least 90%. Moreover, the cell survival rate with MTKG cells [3] (10 nM doxorubicin alone) is 78.8±7.8%; in the series on MTKG cells [3] (25 nM doxorubicin alone), 37.7±3.3%.

Regarding `CC(=O)O[C@H]1C(=O)[C@@]2(C)[C@H]([C@H](OC(=O)c3ccccc3)[C@]3(O)C[C@H](OC(=O)[C@H](O)[C@@H](NC(=O)c4ccccc4)c4ccccc4)C(C)=C1C3(C)C)[C@]1(OC(C)=O)CO[C@@H]1C[C@@H]2O` [paclitaxel], the inhibition at 0.01 µM in the series on MTKG cells [1] (paclitaxel concentration of 10 nM, FIG. 4C) was at least 70%. The accumulation of paclitaxel entry in the series with MTKG cells [4] is listed as “higher accumulation”. Besides, in the series with HCT/Mock cells [2] (Homo sapiens, 240 h, paclitaxel concentration of 100 nM, FIG. 4C, read-out: inhibition of cell proliferation), the inhibition at 0.1 µM is at least 70%.

On to `Nc1nc(O)c2ncn(COC(CO)CO)c2n1` [ganciclovir], for which the “proliferation of cells on administration of ganciclovir” value is given as “not affected” in the series with HCT/Mock cells [5], “affected” in the series on MTKG cells [6] and “not affected” in the series with HCT-15 cells. The accumulation of ganciclovir result with MTKG cells [7] was “higher accumulation”. In addition, the cell survival rate with MTKG cells [3] (0.1 μCi ganciclovir alone) worked out at 61.1±4.1%.

B1: MDR1 shRNA: shRNA with sense and antisense sequences for target SEQ ID NO: 6 (5′-GGCCUAAUGCCGAACACAU-3′), CGAA loop, expressed from U6 promoter (nucleic acid)
sense: GATCCCGGCCTAATGCCGAACACATCGAAATGTGTTCGGCATTAGGCCTTTTTTCCAAC
antisense: TCGAGTTGGAAAAAAGGCCTAATGCCGAACACATTTCGATGTGTTCGGCATTAGGCCGG
modifications: the letters are possibly those of the target site
B1: the “level of MDR1 mRNA” value in the series with MDR1 mRNA was “decreased level of MDR1 mRNA”. Further, the P-glycoprotein expression result in the series with P-glycoprotein is reported as “inhibition of P-glycoprotein expression”.

The values are drawn from patent US20090214435A1, “Recombinant vector expressing MDR1 shRNA and thymidine kinase and use thereof” (Kyungpook National University Industry-Academic Cooperation …, priority 2007, published 2009).
